Test results from PubChem BioAssay AID330 (DTP/NCI, 2004).
Several values for one entry are separate records, joined by “and”; a condition that tells them apart may be missing. Identical values can stand only once. Inconclusive results and toxic doses are left out. How the source made its calls: active means survival T/C of 150% or more; inactive means T/C below 125% in these data.

Tested on: P388 leukemia ip, CD2F1 mice, survival T/C
Test: NCI In Vivo Anticancer Drug Screen. Data for tumor model P388 Leukemia (intraperitoneal) in CD2F1 (CDF1) mice
Settings: endpoint: median survival time, higher = longer survival
How it was run: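 Mice carrying the transplanted tumor received test compound or vehicle. Survival was recorded in each group, and the value is the treated-group measurement divided by that of the vehicle-treated control group.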

[1] = dose: 100.0 mg/kg/injection, schedule: Q01DX009 (ip), vehicle: saline with Tween-80
[2] = dose: 200.0 mg/kg/injection, schedule: Q01DX009 (ip), vehicle: saline with Tween-80
[3] = dose: 50.0 mg/kg/injection, schedule: Q01DX005 (ip), vehicle: Klucel (hydroxypropylcellulose) (HPC)
[4] = dose: 100.0 mg/kg/injection, schedule: Q01DX005 (ip), vehicle: Klucel (hydroxypropylcellulose) (HPC)
[5] = dose: 200.0 mg/kg/injection, schedule: Q01DX005 (ip), vehicle: Klucel (hydroxypropylcellulose) (HPC)
[6] = dose: 60.0 mg/kg/injection, schedule: Q01DX005 (ip), vehicle: saline with Tween-80
[7] = dose: 120.0 mg/kg/injection, schedule: Q01DX005 (ip), vehicle: saline with Tween-80
[8] = dose: 240.0 mg/kg/injection, schedule: Q01DX005 (ip), vehicle: saline with Tween-80
[9] = dose: 100.0 mg/kg/injection, schedule: Q04DX002 (ip), vehicle: Klucel (hydroxypropylcellulose) (HPC)
[10] = dose: 200.0 mg/kg/injection, schedule: Q04DX002 (ip), vehicle: Klucel (hydroxypropylcellulose) (HPC)
[11] = dose: 400.0 mg/kg/injection, schedule: Q04DX002 (ip), vehicle: Klucel (hydroxypropylcellulose) (HPC)
[12] = dose: 50.0 mg/kg/injection, schedule: Q01DX009 (ip), vehicle: saline with Tween-80
[13] = dose: 50.0 mg/kg/injection, schedule: Q01DX009 (ip), vehicle: Klucel (hydroxypropylcellulose) (HPC)
[14] = dose: 100.0 mg/kg/injection, schedule: Q01DX009 (ip), vehicle: Klucel (hydroxypropylcellulose) (HPC)
[15] = dose: 12.5 mg/kg/injection, schedule: Q01DX009 (ip), vehicle: saline
[16] = dose: 25.0 mg/kg/injection, schedule: Q01DX009 (ip), vehicle: saline
[17] = dose: 50.0 mg/kg/injection, schedule: Q01DX009 (ip), vehicle: saline
[18] = dose: 50.0 mg/kg/injection, schedule: Q01DX005 (ip), vehicle: saline
[19] = dose: 100.0 mg/kg/injection, schedule: Q04DX002 (ip), vehicle: saline with Tween-80
[20] = dose: 200.0 mg/kg/injection, schedule: Q04DX002 (ip), vehicle: saline with Tween-80
[21] = dose: 400.0 mg/kg/injection, schedule: Q04DX002 (ip), vehicle: saline with Tween-80

Measured: T/C

CC(=Nc1ccccc1)c1ccc2ccccc2c1
inactive: [1] 95 % of control | [2] 90 % of control | dose: 400.0 mg/kg/injection, schedule: Q01DX009 (ip), vehicle: saline with Tween-80 90 % of control

CN(C)c1nnnn1Cc1ccccc1
inactive: [3] 97 % of control | [4] 97 % of control | [5] 106 % of control

COc1cc(CCCOC2OC(COC3OCC(O)C(O)C3O)C(O)C(O)C2O)cc2cc(-c3ccc4c(c3)OCO4)oc12 (configuration not stated)
inactive: dose: 2.34 mg/kg/injection, schedule: Q01DX005 (ip), vehicle: Klucel (hydroxypropylcellulose) (HPC) 95 % of control | dose: 4.68 mg/kg/injection, schedule: Q01DX005 (ip), vehicle: Klucel (hydroxypropylcellulose) (HPC) 94 % of control | dose: 9.37 mg/kg/injection, schedule: Q01DX005 (ip), vehicle: Klucel (hydroxypropylcellulose) (HPC) 98 % of control | dose: 18.75 mg/kg/injection, schedule: Q01DX005 (ip), vehicle: Klucel (hydroxypropylcellulose) (HPC) 94 % of control

O=c1c(-c2ccccc2)nc2ccccc2n1CC1CCCN2CCCC[C@H]12 (some centres not stated)
inactive: [6] 99 % of control | [7] 97 % of control | [8] 102 % of control

Cc1nc2ccccc2c2c1C(=O)c1ccccc1-2
inactive: [9] 96 % of control | [10] 89 % of control | [11] 89 % of control

ClC1=C(Cl)C(Cl)=C(Cl)C1=Cc1ccccc1
inactive: dose: 6.25 mg/kg/injection, schedule: Q01DX009 (ip), vehicle: saline with Tween-80 108 % of control | dose: 12.5 mg/kg/injection, schedule: Q01DX009 (ip), vehicle: saline with Tween-80 118 % of control | dose: 25.0 mg/kg/injection, schedule: Q01DX009 (ip), vehicle: saline with Tween-80 117 % of control | [12] 123 % of control

Cc1nn(C(=O)c2ccncc2)c(C)c1N=Nc1ccc(Br)cc1
inactive: [13] 109 % of control | [14] 110 % of control | dose: 200.0 mg/kg/injection, schedule: Q01DX009 (ip), vehicle: Klucel (hydroxypropylcellulose) (HPC) 105 % of control

CN(C)CC(CN(C)C)C(=O)c1ccccc1
inactive: dose: 3.12 mg/kg/injection, schedule: Q01DX009 (ip), vehicle: saline 103 % of control and 105 % of control | dose: 6.25 mg/kg/injection, schedule: Q01DX009 (ip), vehicle: saline 105 % of control (2×) and 122 % of control | [15] 107 % of control and 117 % of control and 112 % of control | [16] 117 % of control [middle of 5 runs] | [17] 124 % of control

CN=C(C)Nc1ccccc1OC
inactive: [15] 111 % of control | [16] 114 % of control | [17] 113 % of control and 97 % of control

O=C1NC(=O)C(=Cc2ccc(Cl)cc2)C(=O)N1
inactive: [3] 114 % of control | [4] 116 % of control

COc1ccc2c3c([nH]c2c1)C(C)=NCC3
inactive: [18] 100 % of control | dose: 100.0 mg/kg/injection, schedule: Q01DX005 (ip), vehicle: saline 105 % of control

CCNC(=O)/N=c1/sc([N+](=O)[O-])cn1CC(=O)N1CCCCC1
inactive: [9] 100 % of control | [10] 99 % of control | [11] 98 % of control

BrC[Si](CBr)(c1ccccc1)c1ccccc1
inactive: [15] 106 % of control | [16] 106 % of control | [17] 99 % of control and 92 % of control

Cc1c(Cc2c(C)n(C)n(-c3ccccc3)c2=O)c(=O)n(-c2ccccc2)n1C
inactive: dose: 25.0 mg/kg/injection, schedule: Q01DX009 (ip), vehicle: Klucel (hydroxypropylcellulose) (HPC) 100 % of control and 103 % of control | [13] 106 % of control and 89 % of control | [14] 99 % of control and 88 % of control

COc1ccc(N/N=C(/c2ccccc2)c2noc(-c3ccccc3)n2)cc1
inactive: [3] 101 % of control | [4] 94 % of control | [5] 93 % of control

C[n+]1ccc(/C=C/c2ccccc2O)cc1
inactive: [15] 89 % of control | [16] 94 % of control | [17] 106 % of control | dose: 100.0 mg/kg/injection, schedule: Q01DX009 (ip), vehicle: saline 117 % of control

O=C(NNc1ncccn1)c1ccc(C(=O)NNc2ncccn2)cc1
inactive: dose: 7.5 mg/kg/injection, schedule: Q01DX005 (ip), vehicle: saline with Tween-80 94 % of control | dose: 15.0 mg/kg/injection, schedule: Q01DX005 (ip), vehicle: saline with Tween-80 93 % of control

O=Cc1c2cnc(c1O)CSCCCCSC2
inactive: [19] 99 % of control | [20] 96 % of control | [21] 101 % of control

Cn1nc2c(c1-c1ccncc1)CCc1ccccc1-2
inactive: dose: 12.5 mg/kg/injection, schedule: Q01DX009 (ip), vehicle: other 110 % of control | dose: 25.0 mg/kg/injection, schedule: Q01DX009 (ip), vehicle: other 105 % of control | dose: 50.0 mg/kg/injection, schedule: Q01DX009 (ip), vehicle: other 115 % of control | dose: 100.0 mg/kg/injection, schedule: Q01DX009 (ip), vehicle: other 107 % of control | dose: 200.0 mg/kg/injection, schedule: Q01DX009 (ip), vehicle: other 103 % of control

CCOC(=O)C(CC(C)C)NC(C)=O (configuration not stated)
inactive: [19] 100 % of control | [20] 105 % of control | [21] 114 % of control

N=C(N)Sc1cc(O)ccc1O
inactive: dose: 75.0 mg/kg/injection, schedule: Q01DX009 (ip), vehicle: saline with Tween-80 118 % of control | dose: 150.0 mg/kg/injection, schedule: Q01DX009 (ip), vehicle: saline with Tween-80 113 % of control

O=C(COc1ccc(Cl)cc1Cl)Nc1ccccc1C(=O)c1ccccc1
inactive: [12] 101 % of control | [1] 101 % of control | [2] 94 % of control

COc1ccc(Cc2cc3c(cc2OCC(=O)NN)OCO3)cc1
inactive: [3] 89 % of control | [4] 88 % of control | [5] 91 % of control

CCN(CC)C(=O)C(F)C(F)(F)C(F)(F)COCc1ccccc1 (configuration not stated)
inactive: [12] 99 % of control | [1] 100 % of control | [2] 100 % of control

COC(=O)C(=C(C)C)S(=O)c1ccccc1 (configuration not stated)
inactive: dose: 12.5 mg/kg/injection, schedule: Q01DX005 (ip), vehicle: saline 102 % of control | dose: 25.0 mg/kg/injection, schedule: Q01DX005 (ip), vehicle: saline 103 % of control | [18] 100 % of control and 104 % of control

CCC1(c2ccccc2)C(=O)c2ccccc2C1=O
inactive: dose: 100.0 mg/kg/injection, schedule: Q04DX002 (ip), vehicle: saline 101 % of control | dose: 200.0 mg/kg/injection, schedule: Q04DX002 (ip), vehicle: saline 102 % of control | dose: 400.0 mg/kg/injection, schedule: Q04DX002 (ip), vehicle: saline 105 % of control

NS(=O)(=O)c1cc([N+](=O)[O-])sc1SSc1sc([N+](=O)[O-])cc1S(N)(=O)=O
inactive: dose: 6.25 mg/kg/injection, schedule: Q01DX001 (ip), vehicle: saline with Tween-80 99 % of control | dose: 12.5 mg/kg/injection, schedule: Q01DX001 (ip), vehicle: saline with Tween-80 104 % of control | dose: 25.0 mg/kg/injection, schedule: Q01DX001 (ip), vehicle: saline with Tween-80 100 % of control

O=C(Cn1ccnc1)N1CCN(c2ccccc2)CC1
inactive: [6] 100 % of control | [7] 94 % of control | [8] 96 % of control
